Assay results reported in patent US6740644B2, “Chemical compounds” (Smithkline Beecham Corporation, priority 1997, dated 2004).

Tests used:
A3 receptor = target: T1, A3 receptor (Homo sapiens, UniProt P0DMS8); assay: Reporter gene experiments: A3 receptor gene assay, ECR relative to NECA; conditions: ECR = concentration ratio relative to NECA = 1
T1 sequence (P0DMS8 1-318): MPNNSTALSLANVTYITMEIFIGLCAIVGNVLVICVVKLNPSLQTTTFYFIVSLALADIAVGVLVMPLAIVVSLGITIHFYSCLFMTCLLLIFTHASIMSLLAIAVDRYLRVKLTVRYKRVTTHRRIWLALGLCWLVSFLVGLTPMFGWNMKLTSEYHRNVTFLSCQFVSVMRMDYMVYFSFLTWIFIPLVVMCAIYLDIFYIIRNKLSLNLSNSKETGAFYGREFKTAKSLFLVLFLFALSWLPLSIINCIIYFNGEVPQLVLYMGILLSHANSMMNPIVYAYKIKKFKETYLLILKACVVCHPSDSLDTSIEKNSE

[1] = target: T2, human adenosine A1 receptor (Homo sapiens, UniProt P30542); assay: Reporter gene experiments: inhibition of forskolin-stimulated SPAP production in CHO cells (CRE/SPAP/HYG), A1; assay type: cell-based; conditions: ECR = concentration ratio relative to NECA = 1, CHO cells co-expressing human adenosine A1 receptor
T2 construct: expressed in transfected cells; host or cells: Chinese hamster ovary (CHO) cells containing the CRE/SPAP/HYG reporter gene
T2 sequence (P30542 1-326): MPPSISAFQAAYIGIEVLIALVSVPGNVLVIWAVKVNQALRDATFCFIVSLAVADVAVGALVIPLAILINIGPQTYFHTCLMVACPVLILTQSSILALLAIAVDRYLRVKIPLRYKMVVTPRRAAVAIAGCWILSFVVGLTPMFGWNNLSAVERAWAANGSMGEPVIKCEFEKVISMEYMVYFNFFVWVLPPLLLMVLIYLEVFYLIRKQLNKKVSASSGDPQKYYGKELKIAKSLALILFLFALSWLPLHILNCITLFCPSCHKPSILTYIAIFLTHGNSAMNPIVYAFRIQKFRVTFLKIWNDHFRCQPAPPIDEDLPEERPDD
Protocol: Reporter Gene Experiments
Agonist activity was measured in Chinese hamster ovary (CHO) cells containing the CRE/SPAP/HYG (CRE=cyclic AMP response element; HYG=hygromycin; SPAP=secreted placental alkaline phosphatase) reporter gene, which upon stimulation of cAMP levels produced SPAP. A cell line was used, which stably co-expresses the human adenosine A1 receptor. Cells were plated out in 96-well plates in culture medium and incubated at 37° C. for 1 hour. […] All cells were then incubated for a further 5 hours at 37° C., and cooled to room temperature, after which a substrate for the phosphatase (para-nitrophenol phosphate,pNPP), which is broken down to a coloured reagent) was then added and the 96-well plates are read in a plate reader. From these readings, the concentration-dependence of the inhibition by the agonist of forskolin-stimulated SPAP production, can be calculated.

| A3 Receptor Gene Assay ECR (A3 receptor) | melting point | A1 Receptor Gene Assay ECR [1] | Compound |
| --- | --- | --- | --- |
| – | 232 to 233 °C | – | COC[C@H]1O[C@@H](n2cnc3c(N[C@H](C)CO)ncnc32)[C@H](O)[C@@H]1O [Example 14, N-(2-Hydroxy-1R-methyl-ethyl)-5′-O-methyl-adenosine] |
| >243 | – | 1.62 | COC[C@H]1O[C@@H](n2cnc3c(NC(C)(C)C)ncnc32)[C@H](O)[C@@H]1O [Example 19, N-tert-Butyl-5′-O-methyl-adenosine] |
| >116 | 225 to 230 °C | 6.21 | COC[C@H]1O[C@@H](n2cnc3c(Nc4ccc(O)c(Cl)c4)ncnc32)[C@H](O)[C@@H]1O [Example 5, N-(3-Chloro-4-hydroxy-phenyl)-5′-O-methyl-adenosine] |
| 57.3 | 202 to 204 °C | 3.90 | COC[C@H]1O[C@@H](n2cnc3c(N[C@@H]4CCC[C@H]4O)ncnc32)[C@H](O)[C@@H]1O [Example 17, N-(2R-Hydroxy-(R)-cyclopentyl)-5′-O-methyl-adenosine] |
| 5.00 | – | 1.27 | COC[C@H]1O[C@@H](n2cnc3c(N[C@H](C)Cc4ccccc4)ncnc32)[C@H](O)[C@@H]1O [Example 6, 5′-O-Methyl-N-(1R-methyl-2-phenyl-ethyl)-adenosine] |
| 180 | 133 to 134 °C | 3.30 | COC[C@H]1O[C@@H](n2cnc3c(NC4CCOCC4)ncnc32)[C@H](O)[C@@H]1O [Example 2, 5′-O-Methyl-N-(tetrahydro-pyran-4-yl)-adenosine] |

Second part, the compound before the results:

| Compound | A3 Receptor Gene Assay ECR (A3 receptor) | melting point | A1 Receptor Gene Assay ECR [1] |
| --- | --- | --- | --- |
| N-(2,3-Dihydroxy-propylamino)-5′-O-methyl-adenosine [Example 21] | 135 | – | – |
| COC[C@H]1O[C@@H](n2cnc3c(N[C@@H]4C[C@@H]5CC[C@H]4C5)ncnc32)[C@H](O)[C@@H]1O (relative stereo) [Example 22, N-rel-[(1S,4R)-Bicyclo[2.2.1]hept-2R-yl]-5′-O-methyl-adenosine] | 112 | – | – |
| CCOC(=O)N1CCC(Nc2ncnc3c2ncn3[C@@H]2O[C@H](COC)[C@@H](O)[C@H]2O)CC1 [Example 23, 4-[9-(3R,4S-Dihydroxy-5R-methoxymethyl-tetrahydro-furan-2R-yl)-9H-purin-6-ylamino]-piperidine-1-carboxylic acid ethyl ester] | 162 | – | 2.20 |
| COC[C@H]1O[C@@H](n2cnc3c(N[C@@H]4CCOC4)ncnc32)[C@H](O)[C@@H]1O [Example 1, 5′-O-Methyl-N-(tetrahydro-furan-3R-yl)-adenosine] | >129 | – | – |
| COC[C@H]1O[C@@H](n2cnc3c(N[C@H]4CCC[C@@H]4F)ncnc32)[C@H](O)[C@@H]1O [Example 20, N-(2S-Fluoro-(S)-cyclopentyl)-5′-O-methyl-adenosine] | 54.8 | – | – |
| CNS(=O)(=O)CCNc1nc(C)nc2c1ncn2[C@@H]1O[C@H](COC)[C@@H](O)[C@H]1O [Example 25, 2-[9-(3R,4S-Dihydroxy-5R-methoxymethyl-tetrahydro-furan-2R-yl)-2-methyl-9H-purin-6-ylamino]-ethanesulfonic acid methylamide] | >288 | – | 1.67 |
| COC[C@H]1O[C@@H](n2cnc3c(NCC4CC4)nc(C)nc32)[C@H](O)[C@@H]1O [Example 28, N-Cyclopropylmethyl-2-methyl-5′-O-methyl-adenosine] | >99 | – | 8.07 |
| COC[C@H]1O[C@@H](n2cnc3c(N[C@@H]4CCO[C@H]4C)ncnc32)[C@H](O)[C@@H]1O [Example 4, 5′-O-Methyl-N-(2S-methyl-tetrahydro-furan-3R-yl)-adenosine] | 338 | – | – |
| COC[C@H]1O[C@@H](n2cnc3c(NC4CCCC4)nc(C)nc32)[C@H](O)[C@@H]1O [Example 27, N-Cyclopentyl-2-methyl-5′-O-methyl-adenosine] | >263 | – | 3.02 |
| COC[C@H]1O[C@@H](n2cnc3c(N[C@H]4CCC[C@@H]4OC)ncnc32)[C@H](O)[C@@H]1O [Example 3, N-(2S-Methoxy-(S)-cyclopentyl)-5′-O-methyl-adenosine] | 204 | – | – |
